Assay results taken from ChEMBL document CHEMBL1201862, “PubChem BioAssay data set” (2004).
Calls of active or inactive are those of the source.

How the values were obtained:
[1] = target: T1, Oxysterols receptor LXR-beta (Homo sapiens, UniProt P55055); assay type: functional, cell-based;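 further: Cell-based luminescence dose-response assay of agonist activity at LXR, run as a confirmatory counterscreen to a daf-12 agonist screen; HEK293 cells with Gal4-LXR fusion and GAL4-driven luciferase reporter; agonist potency from rising luciferase signal of a Gal4-LXR reporter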
T1 sequence (P55055 whole entry): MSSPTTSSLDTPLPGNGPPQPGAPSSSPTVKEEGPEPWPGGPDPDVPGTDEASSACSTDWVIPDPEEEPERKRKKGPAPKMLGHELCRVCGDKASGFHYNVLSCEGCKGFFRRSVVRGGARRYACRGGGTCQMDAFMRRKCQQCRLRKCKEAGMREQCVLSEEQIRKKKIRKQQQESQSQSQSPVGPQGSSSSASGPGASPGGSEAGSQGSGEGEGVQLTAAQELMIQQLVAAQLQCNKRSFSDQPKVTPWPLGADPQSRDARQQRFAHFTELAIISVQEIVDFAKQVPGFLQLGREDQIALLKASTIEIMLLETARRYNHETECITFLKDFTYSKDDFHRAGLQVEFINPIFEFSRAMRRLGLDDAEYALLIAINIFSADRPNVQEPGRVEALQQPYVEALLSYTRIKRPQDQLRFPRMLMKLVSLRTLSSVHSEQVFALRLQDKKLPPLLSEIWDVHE

[2] = target: T2, Probable nicotinate-nucleotide adenylyltransferase (Staphylococcus aureus (strain N315), UniProt P65502); assay type: functional, Staphylococcus aureus subsp. aureus N315;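 on IC50 Mean: confirmatory dose-response retesting of NadD inhibitor hits first found in an ultra-high-throughput screen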
T2 sequence (P65502 whole entry): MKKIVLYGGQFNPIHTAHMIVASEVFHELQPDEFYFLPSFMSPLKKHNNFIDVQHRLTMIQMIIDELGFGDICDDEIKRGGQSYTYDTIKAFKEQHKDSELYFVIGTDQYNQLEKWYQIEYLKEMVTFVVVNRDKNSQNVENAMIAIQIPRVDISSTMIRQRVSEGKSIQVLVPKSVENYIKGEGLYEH

[3] = target: T2, Probable nicotinate-nucleotide adenylyltransferase; assay type: functional, Staphylococcus aureus subsp. aureus N315; details: read-out: IC50_Mean
[4] = reduction of Shn3 3'UTR-driven luciferase in osteoblasts – cell-based, Clone20 osteoblasts, firefly luciferase, cherry-picked, dose response (AID 624132); assay type: functional;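 further: firefly luciferase luminescence from reporter carrying the Shn3 3'UTR in osteoblasts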
[5] = loss of viability in HepG2 cells – cell-based, CellTiter-Glo, cherry-picked, cytotoxicity control for Shn3 inhibitor project, dose response (AID 624134); assay type: functional
[6] = non-specific 3'UTR reporter inhibition in Clone20-Shn3RL – cell-based, Renilla luciferase, cherry-picked, counter-screen for Shn3 inhibitor project, dose response (AID 624133); assay type: functional
[7] = Shn3 3'UTR reporter signal decrease – cell-based, Clone20 osteoblasts, firefly luciferase, cherry-pick, set 2, Schnurri-3 inhibitor project, dose response (AID 720490); assay type: functional;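 further: actives lower the luminescence signal as inhibitors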
[8] = EF1alpha-driven Renilla reporter with control 3'UTR suppression – Clone20-Shn3RL cells, dual-Glo, cherry-pick, set 2, counter-screen for Shn3 3'UTR targeting project, dose response (AID 720724); assay type: functional, cell-based; details: Dual-Go Shn3RL
[9] = potency of ADAM10 substrate cleavage blockers – biochemical, QFRET, dose response (AID 743254);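 further: ADAM10 enzyme with the DM2 quenched FRET peptide as substrate; EDANS fluorescence gain as the protease cuts the substrate; inhibitor potency against ADAM10 proteolytic activity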
[10] = target: Disintegrin and metalloproteinase domain-containing protein 17 (Homo sapiens, UniProt P78536); test: inhibition of ADAM17 substrate cleavage – biochemical, quenched FRET substrate, counter-screen for ADAM10 exosite inhibitor project, dose response (AID 743253)
Disintegrin and metalloproteinase domain-containing protein 17, sequence (P78536 whole entry, the tested form may be a part): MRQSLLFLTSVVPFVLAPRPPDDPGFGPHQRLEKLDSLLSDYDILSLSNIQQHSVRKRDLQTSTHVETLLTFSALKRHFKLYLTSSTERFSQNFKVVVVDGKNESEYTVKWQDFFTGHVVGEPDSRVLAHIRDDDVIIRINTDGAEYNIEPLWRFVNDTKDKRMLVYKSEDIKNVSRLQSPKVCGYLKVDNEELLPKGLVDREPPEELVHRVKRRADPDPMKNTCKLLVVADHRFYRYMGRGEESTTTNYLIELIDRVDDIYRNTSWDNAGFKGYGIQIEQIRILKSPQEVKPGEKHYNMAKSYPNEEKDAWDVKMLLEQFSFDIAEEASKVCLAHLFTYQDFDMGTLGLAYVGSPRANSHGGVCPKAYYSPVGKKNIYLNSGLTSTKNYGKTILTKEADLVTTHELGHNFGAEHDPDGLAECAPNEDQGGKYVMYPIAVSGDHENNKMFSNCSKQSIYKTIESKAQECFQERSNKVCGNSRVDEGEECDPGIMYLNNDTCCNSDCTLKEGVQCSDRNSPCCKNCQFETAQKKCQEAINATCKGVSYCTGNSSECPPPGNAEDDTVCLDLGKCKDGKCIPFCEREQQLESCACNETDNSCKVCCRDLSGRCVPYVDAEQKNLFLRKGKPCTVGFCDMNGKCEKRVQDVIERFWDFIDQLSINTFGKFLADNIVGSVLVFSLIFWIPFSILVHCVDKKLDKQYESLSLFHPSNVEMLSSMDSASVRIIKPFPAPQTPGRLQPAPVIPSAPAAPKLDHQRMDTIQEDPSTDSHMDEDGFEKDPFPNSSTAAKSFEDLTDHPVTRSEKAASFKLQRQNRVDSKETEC

Interleukin-8 = Interleukin-8 (Homo sapiens, UniProt P10145); test: Dose Response confirmation of uHTS small molecule hits for cystic fibrosis induced NFkb Inhibitors in a PAF-induced IL8 counterscreen.; assay type: functional; details: read-out: IC50_Mean
Interleukin-8, sequence (P10145 whole entry): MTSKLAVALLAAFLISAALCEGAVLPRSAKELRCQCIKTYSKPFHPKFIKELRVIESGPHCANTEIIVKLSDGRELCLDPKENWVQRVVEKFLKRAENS

Paired box protein Pax-8 = Paired box protein Pax-8 (Homo sapiens, UniProt Q06710); test: PAX8 transcriptional activity inhibition in RMG-I – RMG-I cells, luciferase, cherry-pick, dose response (AID 687027); assay type: functional, cell-based;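 further: luciferase reporter driven by Pax8 target thyroperoxidase promoter measured by SteadyGlo luminescence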
Paired box protein Pax-8, sequence (Q06710 whole entry): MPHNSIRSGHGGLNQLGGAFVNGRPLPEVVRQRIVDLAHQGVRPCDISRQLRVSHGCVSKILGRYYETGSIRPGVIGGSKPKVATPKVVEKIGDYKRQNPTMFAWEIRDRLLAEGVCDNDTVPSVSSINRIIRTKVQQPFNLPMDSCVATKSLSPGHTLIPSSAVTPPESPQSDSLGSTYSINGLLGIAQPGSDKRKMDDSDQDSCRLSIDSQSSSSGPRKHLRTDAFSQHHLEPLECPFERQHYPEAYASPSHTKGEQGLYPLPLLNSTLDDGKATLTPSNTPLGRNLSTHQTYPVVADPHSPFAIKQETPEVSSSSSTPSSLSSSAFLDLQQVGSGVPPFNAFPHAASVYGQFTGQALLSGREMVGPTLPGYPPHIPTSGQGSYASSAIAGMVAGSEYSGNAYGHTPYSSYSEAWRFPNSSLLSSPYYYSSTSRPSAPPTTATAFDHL

[11] = OVCAR-3 cell viability loss – plate reader, dry powder samples, PAX8 inhibitor project, dose response (AID 743044); assay type: functional, cell-based
[12] = IGROV1 cell killing – plate reader, dry powder samples, PAX8 inhibitor project, dose response (AID 743043); assay type: functional, cell-based; details: IGROV-1
[13] = bead-based luminescence quenchers, dual-tagged ARNT – biochemical, AlphaScreen, cherry-pick, artefact control for ARNT-TACC3 interaction inhibitor project, dose response (AID 651705); assay type: functional;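 further: AlphaScreen bead proximity signal that flags compounds interfering with the detection technology; potency reflects signal decrease which marks the compound as an assay artifact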
[14] = Dd2 parasite growth inhibition in erythrocytes – SYBR Green, dry powder samples, set 9, dose response (AID 1159568); assay type: functional, cell-based
[15] = luciferase reporter signal suppression in cells – H4 neuroglioma cells, luminescence, dose response (AID 1990); assay type: functional, cell-based
[16] = Luminescence Cell-Based Dose Response HTS to Identify Inhibitors of 5'UTR Stem-Loop Driven Prion Protein mRNA Translation in H4 Neuroglioblastoma Cells. [Related pubchem assays: 1827 (Project Summary), 1813 (Primary HTS)]; assay type: functional
[17] = alpha-synuclein stem-loop luciferase translation blockers – H4 neuroglioma cells, luminescence, confirmation (AID 1988); assay type: functional, cell-based
Cysteine protease ATG4B = target: T3, Cysteine protease ATG4B (Homo sapiens, UniProt Q9Y4P1); assay type: functional;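 further: Fluorescence-based dose-response confirmation assay measuring inhibition of ATG4B activity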
T3 sequence (Q9Y4P1 whole entry): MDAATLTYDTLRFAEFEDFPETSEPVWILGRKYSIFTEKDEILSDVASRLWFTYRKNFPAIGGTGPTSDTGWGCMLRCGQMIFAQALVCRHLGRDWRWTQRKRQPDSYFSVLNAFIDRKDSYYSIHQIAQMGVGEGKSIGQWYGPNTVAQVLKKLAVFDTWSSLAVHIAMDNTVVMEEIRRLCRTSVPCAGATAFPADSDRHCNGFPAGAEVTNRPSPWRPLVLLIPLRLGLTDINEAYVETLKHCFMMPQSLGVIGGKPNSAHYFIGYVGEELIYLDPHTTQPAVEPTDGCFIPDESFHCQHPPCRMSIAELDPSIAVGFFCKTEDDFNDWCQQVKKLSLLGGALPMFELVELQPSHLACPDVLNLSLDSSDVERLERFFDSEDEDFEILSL

HEK293 = test: EBV LMP1 TES2 canonical NF-kB signalling blockers – cell-based, HEK293, luciferase, cherry-pick, dose response (AID 588343); assay type: functional; details: Homo sapiens
Phospholipase A2 = Phospholipase A2 (Homo sapiens, UniProt P04054); assay type: functional;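 further: confirmatory dose-response counterscreen on phospholipase A2, testing hits that came from an ultra-high-throughput screen for ATG4B inhibitors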
Phospholipase A2, sequence (P04054 whole entry, the tested form may be a part): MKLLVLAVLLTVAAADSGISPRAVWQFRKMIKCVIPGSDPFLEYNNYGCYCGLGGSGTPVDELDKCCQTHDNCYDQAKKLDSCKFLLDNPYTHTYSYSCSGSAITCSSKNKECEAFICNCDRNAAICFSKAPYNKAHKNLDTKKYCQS

[18] = blockers of HIV-1 envelope-mediated cell-cell fusion – cherry-pick, dose response (AID 652057); assay type: functional, cell-based
[19] = blockers of HIV-1 ZM109 envelope-driven cell-cell fusion – HeLa effector, CEM target cells, luciferase, cherry-pick, dose response (AID 652058); assay type: functional, cell-based;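 further: luciferase signal from HIV-1 Env mediated cell-cell fusion of effector and target cells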
[20] = off-target signal loss in HeLa-CEM21 co-culture – HeLa F-luc CTL cells, cherry-picked, counter-screen for HIV-1 Env fusion inhibitor project, dose response (AID 652040); assay type: functional, cell-based;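 further: potency for signal decrease marking cytotoxic or nonspecific inhibition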
[21] = HIV-1 AD8 envelope cell-cell fusion blockers – cherry-pick, dose response (AID 652062); assay type: functional, cell-based;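 further: luciferase signal from cell-cell fusion driven by HIV-1 clade B AD8 Env; potency is for inhibitors of fusion seen as a drop in luminescence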
[22] = test system: Streptococcus sp. 'group A'; test: Streptococcus pyogenes SK(-)GAS viability under kanamycin – luminescence, BacTiterGlo, confirmation, counter-screen for streptokinase expression inhibitor project, dose response (AID 1900); assay type: functional, organism-based
Streptococcus = test: GAS UMAA2166 growth inhibition – luminescence, BacTiterGlo, counter-screen for streptokinase expression inhibitor project, dose response (AID 1915); assay type: functional, organism-based;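 further: potency for reduction of bacterial viability or growth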
INS1 = test: INS-1E survival protection against cytokine death – cell-based, luminescence, retest, dose response (AID 449756); assay type: functional; details: Rattus norvegicus;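 further: cell death triggered by IL-1 beta plus TNF-alpha plus IFN-gamma mixture; protective hits raise ATP signal compared with cytokine alone wells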
[23] = target: COUP transcription factor 2 (Homo sapiens, UniProt P24468); test: Luminescence-based cell-based high throughput dose response assay to identify inhibitors of COUP-TFII (NR2F2).; assay type: functional;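 further: HEK293 cells transiently cotransfected with COUP-TFII expression vector and reporter; luciferase reporter luminescence driven by COUP-TFII from the pX2-168 reporter plasmid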
COUP transcription factor 2, sequence (P24468 whole entry): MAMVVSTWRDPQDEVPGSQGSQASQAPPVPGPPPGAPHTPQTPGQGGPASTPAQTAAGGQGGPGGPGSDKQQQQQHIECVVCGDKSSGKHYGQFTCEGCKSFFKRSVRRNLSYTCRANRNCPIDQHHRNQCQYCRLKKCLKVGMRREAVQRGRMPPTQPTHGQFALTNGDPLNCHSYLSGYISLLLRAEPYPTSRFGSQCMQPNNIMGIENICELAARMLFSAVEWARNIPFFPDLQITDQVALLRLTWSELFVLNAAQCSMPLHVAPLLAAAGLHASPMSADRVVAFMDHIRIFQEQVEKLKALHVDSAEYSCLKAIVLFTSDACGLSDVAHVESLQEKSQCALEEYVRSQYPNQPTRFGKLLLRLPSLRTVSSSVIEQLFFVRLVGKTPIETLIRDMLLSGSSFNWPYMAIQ

[24] = rise of 2N DNA cells, HeLa – IC50, dose response (AID 1117349); assay type: functional, cell-based
[25] = CellTiter-Glo luminescence survival assay, SW480 colon tumor line, concentration-response curve, half-maximal inhibitory concentration (AID 1117338); assay type: functional
[26] = RKO cell viability reduction, dose response, CellTiter-Glo luminescence (AID 1117322); assay type: functional
[27] = cytotoxicity toward HCT116 cells – cell-based, CellTiter-Glo luminescence, IC50, dose response (AID 1117332); assay type: functional; details: HCT-116
[28] = cytotoxicity toward Colo320 cells – cell-based, CellTiter-Glo luminescence, IC50, dose response (AID 1117334); assay type: functional; details: COLO 320
[29] = rise of 4N DNA cells, HeLa – IC50, dose response (AID 1117351); assay type: functional, cell-based
[30] = cytotoxicity toward HT-29 cells – cell-based, CellTiter-Glo luminescence, IC50, dose response (AID 1117330); assay type: functional
[31] = Reduced DLD-1 viability, concentration-response, CellTiter-Glo luminescence (AID 1117352); assay type: functional
[32] = HCT116 cell viability decrease, GSK3B pretreatment – CellTiter-Glo, IC50, dose response (AID 1117339); assay type: functional; details: HCT-116

CSc1ccc(C2NN=C(c3ccccc3)S2)cc1 (stereo unspecified)
EC50 [1]: > 67.6 µM (inactive) | EC50 (cells): > 67.6 µM (inactive)

Nc1nc(COc2ccccc2C=O)nc(Nc2ccccc2)n1
IC50 [2]: 36.7 µM (active) | IC50 [3]: 52.1 µM (active)

CC(C)c1nc(SCC(=O)Nc2cccc(C(F)(F)F)c2)c2c(=O)n(C)c(=O)n(C)c2n1
AC50 [4]: 2.7 µM (active) | AC50 [5]: > 70 µM (inactive) | AC50 [6]: 13.2 µM (active) | AC50 [7]: 2.54 µM (active) | AC50 [8]: 3.53 µM (active)

O=C(CSc1nnc(-c2cccs2)n1Cc1ccco1)Nc1ccc(Oc2ccccc2)cc1
IC50 [9]: > 69.5 µM (inactive) | IC50 [10]: > 69.5 µM (inactive)

COc1cccc2c(SCC(=O)N/N=C/c3ccccc3)cc(C)nc12
IC50 (Interleukin-8): 11.3 µM (inactive)

Cc1ccc(S(=O)(=O)Nc2ccc3c(c2)C(=O)N([C@H](C)CO)C[C@@H](C)[C@@H](CN(C)Cc2ccc(C(F)(F)F)cc2)OCCCC[C@H](C)O3)cc1
AC50 (Paired box protein Pax-8): 4.18 µM (active) | AC50 [11]: 18.1 µM (active) | AC50 [12]: 43.5 µM (active)

COc1ccc(Nc2nnc(-c3ccc(C(N)=O)cc3)c3ccccc23)cc1
AC50 [13]: 104 µM (active)

Cc1ccc(S(=O)(=O)N2CCC(=O)N2)cc1
IC50 [9]: > 69.6 µM (inactive) | IC50 [10]: > 69.6 µM (inactive)

C[C@H](CO)N1C[C@H](C)[C@H](CN(C)S(=O)(=O)c2ccc(F)cc2)OCCCC[C@H](C)Oc2ccc(N(C)C)cc2C1=O
AC50 [14]: 5.45 µM (active)

NC(=O)c1sc2nc3c(c(-c4ccccc4)c2c1N)CCC3
EC50 [15]: 25.6 µM (active) | EC50 [16]: 6.39 µM (active) | EC50 [17]: 16.6 µM (active) | IC50 (Cysteine protease ATG4B): 12.3 µM (active) | AC50 (HEK293): 14.6 µM (active) | IC50 (Phospholipase A2): 8.38 µM (active) | IC50 (Interleukin-8): 15.3 µM (inactive) | AC50 [18]: 1.87 µM (active) | AC50 [19]: 0.736 µM (active) | AC50 [20]: 10.2 µM (active) | AC50 [21]: 1.55 µM (active)

CCOC(=O)c1cnc(-n2nc(C)cc2C)nc1NC1CCCC1
EC50 [22]: 2.69 µM (active) | EC50 (Streptococcus): 5.64 µM (active) | AC50 (INS1): 2.73 µM (active) | AC50 [4]: 4.4 µM (active) | AC50 [5]: 8.6 µM (active) | AC50 [6]: 7.1 µM (active) | IC50 [23]: 7.91 µM (active)

COc1cc(NCc2ccc3nc(N)nc(N)c3c2C)cc(OC)c1OC
IC50 [24]: > 10 µM (inactive) | IC50 [25]: 0.0591 µM (active) | IC50 [26]: 0.00272 µM (active) | IC50 [27]: 0.0231 µM (active) | IC50 [28]: 0.386 µM (active) | IC50 [29]: > 10 µM (inactive) | IC50 [30]: 0.0212 µM (active) | IC50 [31]: 0.195 µM (active) | IC50 [32]: 0.00392 µM (active)
